In the NIST ThermoML archive (doi:10.1021/je7004787):
Numbers after ± are expanded uncertainties.

Test: wn = mass fraction of the nth substance listed
Settings: 298.15 K, 101 kPa, Liquid; for viscosity: Capillary tube (Ostwald / Ubbelohde) method; for mass density: Pycnometric method

viscosity (w1 = 0.1) [mPa·s]	viscosity (w1 = 0.2) [mPa·s]	viscosity (w1 = 0.3) [mPa·s]	viscosity (w1 = 1) [mPa·s]	mass density (w1 = 0.1) [kg/m3]	mass density (w1 = 0.2) [kg/m3]	mass density (w1 = 0.3) [kg/m3]	mass density (w1 = 1) [kg/m3]	viscosity (w2 = 0) [mPa·s]	mass density (w2 = 0) [kg/m3]	Structure (SMILES)
0.49 ± 0.014	0.51 ± 0.014	0.53 ± 0.015	1.2 ± 0.031	894.1 ± 4.5	907.1 ± 4.6	919 ± 4.8	1030.5 ± 6			C1COCCO1 [1,4-dioxane] + C1CCOC1
								0.463 ± 0.013	880.7 ± 4.4	C1CCOC1 [tetrahydrofuran] + C1COCCO1
